Patent US7399825B2, “Synthetic peptide, inhibitor to DNA viruses” (priority 2003, dated 2008)
No end group written: not given here.

How the values were obtained:
uninfected cells = conditions: up to 200 μg/ml
herpes viruses = experiment: Antiviral activity of synthetic Herp versions (13, 10 and 5 amino acids); assay type: cell-based; conditions: synthetic versions of Herp compared
Procedure: ID. […] The sequencing and synthesizing was contracted out to the Protein Core Laboratory of Baylor College of Medicine, Houston, Tex.
Infectivity Inhibition of HSV-1 and HSV-2 Viruses by Synthetic Herp: For comparison, Herpoxin and the synthetic Herps were tested in Vero cell cultures infected with HSV-1 or HSV-2 viruses. The cells were infected in serial concentrations from 10^2 to 10^8. Three wells were used for each concentration. After absorption of the virus the cultures were divided into three groups. Group one received medium containing PBS as a […] control, group two received medium containing 10 μg/ml of Herpoxin (natural Herp) and in the remaining group the medium was incorporated with 10 μg/ml synthetic Herp (Syn-Herp-10 amino acid (AA) version). The tests were read after six days and TCID/50 were calculated from CPE.

| Substance | effect on the respective uninfected cells (uninfected cells) | antiviral activity / inhibition of herpes viruses (herpes viruses) |
| --- | --- | --- |
| NLYQFKNMIQ [Syn Herp, Asn-Leu-Tyr-Gln-Phe-Lys-Asn-Met-Ile-Gln] | no effect | – |
| Asn-Leu-Tyr-Gln-Phe (NLYQF; SYNTHESIZED. CORRESPONDS TO POSITIONS 1-5 OF SEQ. ID. NO. 1.) [SEQ. ID. NO. 3, synthetic Herp of 5 amino acids from the N-terminal] | – | good results |
| NLYQFKNMIQQFL [SEQ. ID. NO. 1] | – | good results |
